In PubChem BioAssay (NCI):
“And” between values parts separate entries of the source, which are not always exact repeats. Equal values may be shown once.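 Grown in 96-well plates, cells were treated for 48 hours with each compound at five concentrations. Insufficient inhibition: endpoint recorded as highest concentration tested. GI50: concentration for 50% inhibition of growth. TGI: concentration producing complete growth inhibition.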

Assays:
Test in all cases: DTP human tumour cell line panel, 48 h
[1] = tested on: XF 498 CNS
[2] = tested on: SK-MEL-2 melanoma
[3] = tested on: M19-MEL melanoma
[4] = tested on: HCT-116 colon
[5] = tested on: SF-539 CNS
[6] = tested on: DLD-1 colon
[7] = tested on: DMS 114 small cell lung
[8] = tested on: DMS 273 small cell lung
[9] = tested on: RXF 393 renal
[10] = tested on: A549 NSCLC
[11] = tested on: HOP-92 NSCLC
[12] = tested on: IGROV1 ovarian
[13] = tested on: DU-145 prostate

Question: Which results are given for `CCc1nc2c([nH]1)C(=O)c1ccccc1C2=O`?
Answer: TGI [1]: 67.1 µM; TGI [2]: > 100 µM; TGI [3]: 31.8 µM; TGI [4]: 80.6 µM; TGI [5]: > 100 µM; TGI [6]: > 100 µM; TGI [7]: 70.6 µM; TGI [8]: > 100 µM; TGI [9]: > 100 µM; TGI [10]: > 100 µM

Question: With `O=C(/C=C/CC(O)(c1ccccc1)c1ccccc1)Nc1ccccc1Cl` as the compound, how does the TGI [2] read?
Answer: > 100 µM

Question: And the TGI [11]?
Answer: > 100 µM

Question: And the TGI [3]?
Answer: > 100 µM

Question: And the TGI [4]?
Answer: > 100 µM

Question: What about the TGI [6] of the same compound?
Answer: > 100 µM

Question: What about the TGI [7] of the same compound?
Answer: > 100 µM

Question: Which results are given for `O=C(CCl)Nc1ccc(C(=O)N/N=C/c2ccc(Cl)cc2)cc1`?
Answer: TGI [1]: 3 µM; GI50 [2]: 2.28 µM; TGI [2]: 4.14 µM and 14.7 µM; GI50 [12]: 1.85 µM; TGI [12]: 3.86 µM and 2.34 µM; TGI [11]: 4.53 µM; TGI [3]: 25.6 µM; GI50 [4]: 1.57 µM; TGI [4]: 3.18 µM and 3.7 µM; GI50 [5]: 1.75 µM; TGI [5]: 3.29 µM and 4.35 µM; TGI [6]: 4.93 µM; TGI [7]: 2.94 µM; GI50 [13]: 13.5 µM; TGI [13]: 8.44 µM and 27 µM; TGI [8]: 4.12 µM; GI50 [9]: 2.09 µM; TGI [9]: 2.39 µM and 6.52 µM; GI50 [10]: 3.96 µM; TGI [10]: 15.2 µM

Question: What does the source list for `COC(=O)Cc1c2n(c3ccccc13)C(=O)N1c3ccccc3C(CC(=O)OC)C21` (configuration not stated)?
Answer: TGI [2]: > 100 µM; TGI [12]: 71.6 µM; TGI [11]: 27.5 µM; TGI [4]: > 100 µM; TGI [5]: 49.4 µM; TGI [13]: > 100 µM; TGI [9]: 64 µM; TGI [10]: > 100 µM

Question: For `Brc1ccc2[nH]cc(-c3csc(-c4c[nH]c5ccc(Br)cc45)n3)c2c1`, which TGI [2] is on record?
Answer: 3.81 µM

Question: And the TGI [12]?
Answer: 4.6 µM

Question: And the TGI [11]?
Answer: 4.64 µM

Question: What about the TGI [4] of the same compound?
Answer: 3.26 µM

Question: What about the TGI [5] of the same compound?
Answer: 2.9 µM

Question: And the TGI [13]?
Answer: 6.89 µM

Question: And the TGI [9]?
Answer: 6.13 µM

Question: What about the TGI [10] of the same compound?
Answer: 7 µM

Question: How did the TGI [2] turn out when `COc1ccc2c(c1)-c1nc(=S)n(CCN(C)C)c3ccc([N+](=O)[O-])c(c13)N2` was run?
Answer: 24.3 µM

Question: What about the TGI [12] of the same compound?
Answer: 2.55 µM

Question: And the TGI [11]?
Answer: 27.7 µM

Question: What about the TGI [4] of the same compound?
Answer: 1.56 µM

Question: What about the TGI [5] of the same compound?
Answer: 2.5 µM

Question: What about the TGI [13] of the same compound?
Answer: 2.93 µM

Question: What about the TGI [9] of the same compound?
Answer: 3.3 µM

Question: What about the TGI [10] of the same compound?
Answer: 2.28 µM

Question: With `O=C(O)CCSc1ncnc2nc[nH]c12` as the compound, how does the TGI [2] read?
Answer: > 100 µM

Question: And the TGI [12]?
Answer: > 100 µM

Question: What about the TGI [11] of the same compound?
Answer: 96.3 µM

Question: And the TGI [4]?
Answer: > 100 µM

Question: And the TGI [5]?
Answer: > 100 µM

Question: And the TGI [13]?
Answer: > 100 µM

Question: And the TGI [9]?
Answer: > 100 µM

Question: What about the TGI [10] of the same compound?
Answer: > 100 µM

Question: For `O=c1ccn([C@@H]2C=C(CO)[C@@H](O)[C@H]2O)c(=O)[nH]1`, which TGI [1] is on record?
Answer: < 0.0625 µM

Question: What about the TGI [2] of the same compound?
Answer: > 625 µM

Question: And the TGI [12]?
Answer: > 625 µM

Question: And the TGI [11]?
Answer: > 625 µM

Question: And the TGI [4]?
Answer: > 625 µM

Question: What about the TGI [5] of the same compound?
Answer: > 625 µM

Question: And the TGI [6]?
Answer: > 625 µM

Question: What about the TGI [8] of the same compound?
Answer: > 625 µM

Question: And the TGI [9]?
Answer: > 625 µM

Question: What about the TGI [10] of the same compound?
Answer: > 625 µM

Question: What does the source list for `O=C1C=CC(=O)c2c(O)c(N3CCN(c4ncccn4)CC3)c(Cl)c(O)c21`?
Answer: TGI [2]: 3.47 µM; TGI [12]: 3.43 µM; TGI [11]: 4.72 µM; TGI [4]: 3.14 µM; TGI [5]: 3.63 µM; TGI [13]: 12.9 µM; TGI [9]: 3.51 µM; TGI [10]: 22.6 µM

Question: Which TGI [2] does the source give for `O=C1CCC(CCc2nc3ccccc3[nH]2)(c2ccccc2)C(=O)N1` (configuration not stated) here?
Answer: > 100 µM

Question: And the TGI [12]?
Answer: > 100 µM

Question: And the TGI [11]?
Answer: > 100 µM

Question: And the TGI [4]?
Answer: > 100 µM

Question: What about the TGI [5] of the same compound?
Answer: > 100 µM

Question: And the TGI [13]?
Answer: > 100 µM

Question: What about the TGI [9] of the same compound?
Answer: > 100 µM

Question: And the TGI [10]?
Answer: > 100 µM

Question: Which results are given for `CCOC(=O)OC1(c2ccccc2)CCN(C)CC1`?
Answer: TGI [2]: > 100 µM; TGI [12]: > 100 µM; TGI [11]: > 100 µM; TGI [4]: > 100 µM; TGI [5]: > 100 µM; TGI [13]: > 100 µM; TGI [9]: > 100 µM; TGI [10]: > 100 µM

Question: For `CC1=[N+]([O-])C2(CCCC2)N(O)C1(C)C`, which TGI [2] is on record?
Answer: > 100 µM

Question: And the TGI [12]?
Answer: > 100 µM

Question: And the TGI [11]?
Answer: > 100 µM

Question: What about the TGI [4] of the same compound?
Answer: > 100 µM

Question: And the TGI [5]?
Answer: > 100 µM

Question: What about the TGI [13] of the same compound?
Answer: > 100 µM

Question: And the TGI [9]?
Answer: > 100 µM

Question: What about the TGI [10] of the same compound?
Answer: > 100 µM

Question: What does the source list for `O=C1CN(c2ccccc2)C(=O)C1C(=O)Nc1ccc(Cl)c(Cl)c1` (configuration not stated)?
Answer: TGI [12]: 14.9 µM; TGI [11]: 14.5 µM; TGI [3]: 14.8 µM; TGI [5]: 16.3 µM; TGI [6]: 23 µM; TGI [7]: 13.3 µM; TGI [8]: 15.1 µM; TGI [10]: 15.7 µM

Question: How did the TGI [2] turn out when `Cc1nc2ccccc2n1Cc1ccc(NC(=S)Nc2ccccc2)cc1` was run?
Answer: > 100 µM

Question: And the TGI [12]?
Answer: > 100 µM

Question: And the TGI [11]?
Answer: > 100 µM

Question: What about the TGI [4] of the same compound?
Answer: > 100 µM

Question: What about the TGI [5] of the same compound?
Answer: > 100 µM

Question: What about the TGI [13] of the same compound?
Answer: > 100 µM

Question: And the TGI [9]?
Answer: > 100 µM

Question: What about the TGI [10] of the same compound?
Answer: > 100 µM

Question: Which results are given for `O=C1c2cccnc2C(=O)c2c1nc1ccccc1c2-c1ccc2c3c(nc4ccccc42)C(=O)c2cccnc2-c13`?
Answer: TGI [2]: 14.1 µM; TGI [12]: 1.39 µM; TGI [11]: 30.5 µM; TGI [4]: 1.73 µM; TGI [5]: 7.49 µM; TGI [13]: 1.34 µM; TGI [9]: 9.68 µM; TGI [10]: 6.86 µM

Question: Which TGI [2] does the source give for `CN(C)CN1C(=O)/C(=N\n2c(-c3ccncc3)n[nH]c2=S)c2ccccc21` here?
Answer: 50.5 µM

Question: And the TGI [12]?
Answer: > 100 µM

Question: And the TGI [11]?
Answer: > 100 µM

Question: And the TGI [4]?
Answer: > 100 µM

Question: What about the TGI [5] of the same compound?
Answer: 52.4 µM

Question: And the TGI [13]?
Answer: 81.6 µM

Question: What about the TGI [9] of the same compound?
Answer: 32.4 µM

Question: What about the TGI [10] of the same compound?
Answer: > 100 µM
